Data on six compounds can be found in US5190957A, “Treatment of multi-drug resistant tumors with quinolyl-and isoquinolyloxazole-2-ones” (Merrell Dow Pharmaceuticals Inc., priority 1992, dated 1993).

Where two headings read alike, the source gives them in different places.

For assay [1], the system named is CHO^R cells (vinblastine (VBL) resistant tumor cell line). Put plainly: Reversal of multidrug resistance (MDR) in CHO^R cells: cell growth with test compound with or without vinblastine (VLB). The assay is classed as cell-based. The conditions noted are these: 72 hr. Here is the method: CHO^R cells were plated at a density of 1X105/35mm dish and were allowed to grow overight at 37° C. in a CO2 incubator. The medium was replaced with medium containing the compounds and vinblastine (0.2 μg/ml). The cells were allowed to grow for further 72 hr and the cell number was determined by Coulter counter after trypsiunization.

Assay [2] has as its system multidrug-resistant tumors. The note with it: reported previously; cited from earlier work.

For `CCCc1[nH]c(=O)oc1-c1ccnc2ccccc12` [4-PROPYL-5-(4-QUINOLINYL)-2(3H)-OXAZOLONE], the inhibition at 0.1 µg/mL in assay [1] (0.1 μg/ml compound + vinblastine 0.2 μg/ml, read-out: % Inhibition of Cell Growth, Compound + VLB) amounted to 4%; in assay [1] (0.1 μg/ml compound, no VLB, read-out: % Inhibition of Cell Growth, Compound Only), 0%. The inhibition at 1 µg/mL in assay [1] (1 μg/ml compound + vinblastine 0.2 μg/ml, read-out: % Inhibition of Cell Growth, Compound + VLB) worked out at 43%; in assay [1] (1 μg/ml compound, no VLB, read-out: % Inhibition of Cell Growth, Compound Only) it was 0%. The inhibition at 5 µg/mL was determined as 93% in assay [1] (5 μg/ml compound + vinblastine 0.2 μg/ml, read-out: % Inhibition of Cell Growth, Compound + VLB) and 0% in assay [1] (5 μg/ml compound, no VLB, read-out: % Inhibition of Cell Growth, Compound Only). In addition, the inhibition at 10 µg/mL in assay [1] (10 μg/ml compound + vinblastine 0.2 μg/ml, read-out: % Inhibition of Cell Growth, Compound + VLB) came to 93%; in assay [1] (10 μg/ml compound, no VLB, read-out: % Inhibition of Cell Growth, Compound Only), 14%.

`C=C[C@H]1C[N@@]2CC[C@H]1C[C@@H]2[C@@H](O)c1ccnc2ccc(OC)cc12` [Quinidine]: the “reversal of drug resistance in multidrug-resistant tumors” value (“reversal of drug resistance” below) in assay [2] was “reverse drug resistance”.

Consider `CC[C@]1(O)C[C@@H]2CN(CCc3c([nH]c4ccccc34)[C@@](C(=O)OC)(c3cc4c(cc3OC)N(C)[C@H]3[C@@](O)(C(=O)OC)[C@H](OC(C)=O)[C@]5(CC)C=CCN6CC[C@]43[C@@H]65)C2)C1` [VLB, vinblastine, reference compound], for which the “effect on cell growth of VLB alone” value in assay [1] (VLB alone, 0.2 μg/ml) was “did not have any effect on cell growth”.

With `COc1ccc([C@@H]2Sc3ccccc3N(CCN(C)C)C(=O)[C@@H]2OC(C)=O)cc1` [diltiazem], the “reversal of drug resistance” value in assay [2] is “reverse drug resistance”.

For the compound `COC(=O)[C@H]1[C@H]2C[C@@H]3c4[nH]c5cc(OC)ccc5c4CCN3C[C@H]2C[C@@H](OC(=O)c2cc(OC)c(OC)c(OC)c2)[C@@H]1OC` [reserpine], in assay [2], the “reversal of drug resistance” value was “reverse drug resistance”.

`COc1ccc(CCN(C)CCCC(C#N)(c2ccc(OC)c(OC)c2)C(C)C)cc1OC` (stereo not shown) [verapamil]: in assay [2], the “reversal of drug resistance” value is reported as “reverse drug resistance”.

One may read the inhibition as the percentage by which the read-out fell short of the control.
